#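 How tested: cells in 96-well plates exposed to compound for 48 hours at five concentrations. GI50: concentration for 50% inhibition of growth.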 Active and inactive are the calls of the source. Cut-off read from the data, not from the text of the source: active = GI50 up to about 1.1 µM and inactive = higher.
# What was measured:
# Assay in all cases: DTP human tumour cell line panel, 48 h
# 786-0 = test system: 786-0
# EKVX = test system: EKVX
# HCC 2998 = test system: HCC 2998
# HCT-15 = test system: HCT-15
# HL-60 = test system: HL-60
# HT-29 = test system: HT-29
# KM12 = test system: KM12
# LOX IMVI = test system: LOX IMVI
# MCF7 = test system: MCF7
# Malme-3M = test system: Malme-3M
# NCI-H226 = test system: NCI-H226
# NCI-H460 = test system: NCI-H460
# OVCAR-3 = test system: OVCAR-3
# SK-MEL-2 = test system: SK-MEL-2
# SNB-75 = test system: SNB-75
# SW-620 = test system: SW-620
# TK-10 = test system: TK-10
# U-251 = test system: U-251
# UACC-257 = test system: UACC-257
# SR = test system: SR
Structure (SMILES),GI50 (786-0),GI50 (EKVX),GI50 (HCC 2998),GI50 (HCT-15),GI50 (HL-60),GI50 (HT-29),GI50 (KM12),GI50 (LOX IMVI),GI50 (MCF7),GI50 (Malme-3M),GI50 (NCI-H226),GI50 (NCI-H460),GI50 (OVCAR-3),GI50 (SK-MEL-2),GI50 (SNB-75),GI50 (SW-620),GI50 (TK-10),GI50 (U-251),GI50 (UACC-257),GI50 (SR)
COc1cc(C=C2C(=O)NC(=S)NC2=O)cc(OC)c1OC,> 100 µM (inactive),> 100 µM (inactive),> 100 µM (inactive),> 100 µM,> 100 µM (inactive),> 100 µM (inactive),> 100 µM (inactive),> 100 µM (inactive),> 100 µM (inactive),> 100 µM (inactive),> 100 µM (inactive),> 100 µM (inactive),> 100 µM (inactive),> 100 µM (inactive),60.7 µM (inactive),> 100 µM (inactive),> 100 µM (inactive),> 100 µM (inactive),> 100 µM (inactive),–
O=C(O)c1ccccc1-c1ccccc1C(=O)c1ccccc1,> 100 µM (inactive),> 100 µM (inactive),–,> 100 µM,> 100 µM (inactive),> 100 µM (inactive),> 100 µM (inactive),> 100 µM (inactive),> 100 µM (inactive),> 100 µM (inactive),> 100 µM (inactive),> 100 µM (inactive),> 100 µM (inactive),> 100 µM (inactive),> 100 µM (inactive),> 100 µM (inactive),> 100 µM (inactive),> 100 µM (inactive),> 100 µM (inactive),> 100 µM (inactive)
CN(C)CCSS(=O)(=O)O,> 100 µM (inactive),> 100 µM (inactive),–,> 100 µM,> 100 µM (inactive),> 100 µM (inactive),> 100 µM (inactive),40.2 µM (inactive),> 100 µM (inactive),> 100 µM (inactive),> 100 µM (inactive),16 µM (inactive),9.16 µM (inactive),> 100 µM (inactive),< 0.01 µM (active),> 100 µM (inactive),> 100 µM (inactive),30.2 µM (inactive),–,> 100 µM (inactive)
COc1ncnc2c(Cl)c(C(O)c3ccccc3)c(Cl)cc12 (stereo not given),–,30.5 µM (inactive),–,24.6 µM,27.5 µM (inactive),30.1 µM (inactive),26.7 µM (inactive),53.3 µM (inactive),31.4 µM (inactive),34.6 µM (inactive),–,30.8 µM (inactive),43.8 µM (inactive),33.6 µM (inactive),22.4 µM (inactive),25.6 µM (inactive),23 µM (inactive),27.3 µM (inactive),> 100 µM (inactive),3.5 µM (inactive)
O=C(/C=N/O)Nc1cc(Cl)c(Cl)cc1Cl,37.4 µM (inactive),23.2 µM (inactive),26.6 µM (inactive),31.4 µM,18.7 µM (inactive),36.8 µM (inactive),26.5 µM (inactive),33.8 µM (inactive),22.6 µM (inactive),35.7 µM (inactive),–,28.4 µM (inactive),24.4 µM (inactive),24.9 µM (inactive),20.7 µM (inactive),35.7 µM (inactive),30.4 µM (inactive),29.2 µM (inactive),26.6 µM (inactive),–
CCCCCCSCC/C(C)=N\OC,> 100 µM (inactive),> 100 µM (inactive),> 100 µM (inactive),> 100 µM,45.3 µM (inactive),> 100 µM (inactive),> 100 µM (inactive),> 100 µM (inactive),> 100 µM (inactive),> 100 µM (inactive),> 100 µM (inactive),> 100 µM (inactive),> 100 µM (inactive),> 100 µM (inactive),> 100 µM (inactive),> 100 µM (inactive),> 100 µM (inactive),> 100 µM (inactive),> 100 µM (inactive),–
OC(c1ccc(Br)cc1)(c1cccs1)C1CC1 (stereo not given),18.3 µM (inactive),31.3 µM (inactive),23.6 µM (inactive),25.4 µM,20.8 µM (inactive),23.4 µM (inactive),17.7 µM (inactive),21.1 µM (inactive),28.2 µM (inactive),20.5 µM (inactive),–,22.4 µM (inactive),18.8 µM (inactive),20.4 µM (inactive),25.8 µM (inactive),30.5 µM (inactive),27.9 µM (inactive),17.8 µM (inactive),27 µM (inactive),–
CCN1C(=O)C(=C/C=C/c2ccc([N+](=O)[O-])cc2)C(=O)N(CC)C1=S,18.6 µM (inactive),21 µM (inactive),43.4 µM (inactive),29.5 µM,82.6 µM (inactive),19.7 µM (inactive),22.3 µM (inactive),18.3 µM (inactive),23.6 µM (inactive),–,25.4 µM (inactive),61.8 µM (inactive),17.8 µM (inactive),23.8 µM (inactive),–,19.1 µM (inactive),19.4 µM (inactive),18.5 µM (inactive),17.6 µM (inactive),–
O=C1CCC[C@]2(CCC[C@@H](O)C2)N1,> 100 µM (inactive),> 100 µM (inactive),> 100 µM (inactive),> 100 µM,> 100 µM (inactive),> 100 µM (inactive),> 100 µM (inactive),> 100 µM (inactive),> 100 µM (inactive),> 100 µM (inactive),–,> 100 µM (inactive),> 100 µM (inactive),> 100 µM (inactive),> 100 µM (inactive),–,> 100 µM (inactive),–,> 100 µM (inactive),–
COC(=O)C1Cc2c([nH]c3ccccc23)-c2[nH]c3ccccc3c2CC(NC(C)=O)C(=O)NCC(=O)N1 (stereo not given),> 100 µM (inactive),> 100 µM (inactive),> 100 µM (inactive),> 100 µM,–,> 100 µM (inactive),> 100 µM (inactive),> 100 µM (inactive),> 100 µM (inactive),–,> 100 µM (inactive),> 100 µM (inactive),> 100 µM (inactive),> 100 µM (inactive),> 100 µM (inactive),> 100 µM (inactive),> 100 µM (inactive),> 100 µM (inactive),> 100 µM (inactive),–
CC1=CC(C)C/C=C/C2C3OC3(C)C(C)C3C(Cc4c[nH]c5ccccc45)NC(=O)C23C(=O)C=CC(=O)C1O (stereo not given),3.25 µM (inactive),1.19 µM (inactive),2.6 µM (inactive),2.26 µM,1.61 µM (inactive),1.42 µM (inactive),15.2 µM (inactive),2.88 µM (inactive),5.78 µM (inactive),1.56 µM (inactive),12.9 µM (inactive),12.8 µM (inactive),5.26 µM (inactive),15.8 µM (inactive),0.728 µM (active),2.02 µM (inactive),1.53 µM (inactive),16.4 µM (inactive),6.27 µM (inactive),–
O=C1C(Cl)=C(Cl)C(=O)C2=C1C1c3ccccc3C2c2ccccc21,22.3 µM (inactive),> 100 µM (inactive),63.8 µM (inactive),39.3 µM,26.2 µM (inactive),> 100 µM (inactive),59 µM (inactive),–,71.4 µM (inactive),24 µM (inactive),> 100 µM (inactive),32.5 µM (inactive),36.1 µM (inactive),> 100 µM (inactive),> 100 µM (inactive),29.4 µM (inactive),83.9 µM (inactive),20.9 µM (inactive),> 100 µM (inactive),–
CSC1=N/C(=C\c2ccccc2)C(=O)N1CN1CCOCC1,41.1 µM (inactive),50.6 µM (inactive),–,33.3 µM,54.6 µM (inactive),30.8 µM (inactive),93.5 µM (inactive),31.6 µM (inactive),28.3 µM (inactive),57.3 µM (inactive),41.6 µM (inactive),–,> 100 µM (inactive),> 100 µM (inactive),69.2 µM (inactive),41.6 µM (inactive),> 100 µM (inactive),64.4 µM (inactive),–,43.6 µM (inactive)
[O-][S+](c1ccccc1)c1ccc(/N=N/O)nc1 (stereo not given),> 100 µM (inactive),> 100 µM (inactive),–,> 100 µM,> 100 µM (inactive),> 100 µM (inactive),> 100 µM (inactive),–,> 100 µM (inactive),0.492 µM (active),69.8 µM (inactive),> 100 µM (inactive),> 100 µM (inactive),–,> 100 µM (inactive),> 100 µM (inactive),> 100 µM (inactive),> 100 µM (inactive),> 100 µM (inactive),> 100 µM (inactive)
Cc1occc1C(=S)Nc1ccc(Cl)c(C(=O)OCC(C)C)c1,16.7 µM (inactive),15.6 µM (inactive),18.9 µM (inactive),16.9 µM,29.4 µM (inactive),13.2 µM (inactive),14.4 µM (inactive),14.9 µM (inactive),14.6 µM (inactive),19.3 µM (inactive),15.3 µM (inactive),22.3 µM (inactive),22.4 µM (inactive),19.5 µM (inactive),15.3 µM (inactive),19.2 µM (inactive),17.3 µM (inactive),17.6 µM (inactive),17.9 µM (inactive),–
CN(C)CCSc1cc(-c2ccccc2)c2ccccc2n1,10.8 µM (inactive),15.7 µM (inactive),–,3.82 µM,3.69 µM (inactive),5.78 µM (inactive),14.3 µM (inactive),10.4 µM (inactive),13.2 µM (inactive),10.8 µM (inactive),16.6 µM (inactive),–,–,14.2 µM (inactive),4.04 µM (inactive),6.14 µM (inactive),7.93 µM (inactive),10.6 µM (inactive),10.4 µM (inactive),13.6 µM (inactive)

# Source: ChEMBL document CHEMBL1201862, “PubChem BioAssay data set” (2004)
